“And” between values parts separate entries of the source, which are not always exact repeats. Equal entries are not always repeated.
System: 628569-122-R-J1-PDC complex spheroid viability
Assay: Anticancer human tumor 628569-122-R-J1-PDC patient-derived head and neck squamous carcinoma cell line growth inhibition [CLK]
Settings: for viability, T/C: stronger effect = lower value
Summary of the method: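 Multi-cell-type spheroids combined patient-derived tumor cells with HUVEC endothelial cells and human mesenchymal stem cells. Paired agents were dosed in half-log steps down from about clinical Cmax, or from 10 microM where Cmax was unknown.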

[1] = curve of first compound, second compound 0.0316 µM
[2] = curve of first compound, second compound 0.1 µM
[3] = curve of first compound, second compound 0.316 µM
[4] = curve of first compound, second compound 1 µM
[5] = curve of first compound, second compound 3.16 µM
[6] = curve of first compound, second compound 10 µM
[7] = second compound 0.0316 µM, first compound 0.00316 µM
[8] = second compound 0.0316 µM, first compound 0.01 µM
[9] = second compound 0.0316 µM, first compound 0.0316 µM
[10] = second compound 0.0316 µM, first compound 0.1 µM
[11] = second compound 0.0316 µM, first compound 0.316 µM
[12] = second compound 0.0316 µM, first compound 1 µM
[13] = second compound 0.1 µM, first compound 0.00316 µM
[14] = second compound 0.1 µM, first compound 0.01 µM
[15] = second compound 0.1 µM, first compound 0.0316 µM
[16] = second compound 0.1 µM, first compound 0.1 µM
[17] = second compound 0.1 µM, first compound 0.316 µM
[18] = second compound 0.1 µM, first compound 1 µM
[19] = second compound 0.316 µM, first compound 0.00316 µM
[20] = second compound 0.316 µM, first compound 0.01 µM
[21] = second compound 0.316 µM, first compound 0.0316 µM
[22] = second compound 0.316 µM, first compound 0.1 µM
[23] = second compound 0.316 µM, first compound 0.316 µM
[24] = second compound 0.316 µM, first compound 1 µM
[25] = second compound 1 µM, first compound 0.00316 µM
[26] = second compound 1 µM, first compound 0.01 µM
[27] = second compound 1 µM, first compound 0.0316 µM
[28] = second compound 1 µM, first compound 0.1 µM
[29] = second compound 1 µM, first compound 0.316 µM
[30] = second compound 1 µM, first compound 1 µM
[31] = second compound 3.16 µM, first compound 0.00316 µM
[32] = second compound 3.16 µM, first compound 0.01 µM
[33] = second compound 3.16 µM, first compound 0.0316 µM
[34] = second compound 3.16 µM, first compound 0.1 µM
[35] = second compound 3.16 µM, first compound 0.316 µM
[36] = second compound 3.16 µM, first compound 1 µM
[37] = second compound 10 µM, first compound 0.00316 µM
[38] = second compound 10 µM, first compound 0.01 µM
[39] = second compound 10 µM, first compound 0.0316 µM
[40] = second compound 10 µM, first compound 0.1 µM
[41] = second compound 10 µM, first compound 0.316 µM
[42] = second compound 10 µM, first compound 1 µM
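Also: spheroids exposed to agents for seven days before readout.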
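For viability, T/C in this document: 100% = DMSO vehicle control viability.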

SMILES: COc1c(OCCCN2CCOCC2)ccc2c3n(c(=NC(=O)c4cnc(N)nc4)nc12)CCN3 + CNC(=O)c1ccc(Nc2nc(OC3CCCC3)c3c(-c4ccc5nc(C)oc5c4)c[nH]c3n2)c(OC)c1
- IC50 [1]: 23.4 nM
- IC50 [2]: < 3.16 nM
- IC50 [3]: < 3.16 nM
- IC50 [4]: < 3.16 nM
- IC50 [5]: < 3.16 nM
- IC50 [6]: < 3.16 nM
- viability, T/C [7]: 83.1%
- viability, T/C [8]: 66.5%
- viability, T/C [9]: 43.5%
- viability, T/C [10]: 25.6%
- viability, T/C [11]: 20.6%
- viability, T/C [12]: 5.3%
- viability, T/C [13]: 46.8%
- viability, T/C [14]: 46.2%
- viability, T/C [15]: 28.7%
- viability, T/C [16]: 22%
- viability, T/C [17]: 19.6%
- viability, T/C [18]: 8.28%
- viability, T/C [19]: 48.3%
- viability, T/C [20]: 47.7%
- viability, T/C [21]: 29.8%
- viability, T/C [22]: 17.1%
- viability, T/C [23]: 16.2%
- viability, T/C [24]: 6.59%
- viability, T/C [25]: 37.8%
- viability, T/C [26]: 34.3%
- viability, T/C [27]: 27.3%
- viability, T/C [28]: 23.5%
- viability, T/C [29]: 13.9%
- viability, T/C [30]: 3.21%
- viability, T/C [31]: 41.6%
- viability, T/C [32]: 34.7%
- viability, T/C [33]: 27.4%
- viability, T/C [34]: 15.4%
- viability, T/C [35]: 5.46%
- viability, T/C [36]: 3.02%
- viability, T/C [37]: 37.5%
- viability, T/C [38]: 28.5%
- viability, T/C [39]: 30.3%
- viability, T/C [40]: 12.8%
- viability, T/C [41]: 21.6%
- viability, T/C [42]: 7.07%

SMILES: CCc1c2c(nc3ccc(O)cc13)-c1cc3c(c(=O)n1C2)COC(=O)[C@]3(O)CC + CNC(=O)c1ccc(Nc2nc(OC3CCCC3)c3c(-c4ccc5nc(C)oc5c4)c[nH]c3n2)c(OC)c1
- IC50 [1]: 326 nM
- IC50 [2]: 61.5 nM
- IC50 [3]: 10.7 nM
- IC50 [4]: < 3.16 nM
- IC50 [5]: < 3.16 nM
- IC50 [6]: < 3.16 nM
- viability, T/C [7]: 62.2%
- viability, T/C [8]: 47.5%
- viability, T/C [9]: 53.5%
- viability, T/C [10]: 46.6%
- viability, T/C [11]: 51.5%
- viability, T/C [12]: 11.4%
- viability, T/C [13]: 56.6%
- viability, T/C [14]: 51.1%
- viability, T/C [15]: 55.2%
- viability, T/C [16]: 43.1%
- viability, T/C [17]: 42%
- viability, T/C [18]: 13.9%
- viability, T/C [19]: 54.2%
- viability, T/C [20]: 49.4%
- viability, T/C [21]: 42.8%
- viability, T/C [22]: 44.4%
- viability, T/C [23]: 31.9%
- viability, T/C [24]: 21.8%
- viability, T/C [25]: 38.8%
- viability, T/C [26]: 42.2%
- viability, T/C [27]: 40.2%
- viability, T/C [28]: 34.2%
- viability, T/C [29]: 26.1%
- viability, T/C [30]: 11.1%
- viability, T/C [31]: 39.8%
- viability, T/C [32]: 40%
- viability, T/C [33]: 36.4%
- viability, T/C [34]: 39.2%
- viability, T/C [35]: 29.7%
- viability, T/C [36]: 7.37%
- viability, T/C [37]: 38.7%
- viability, T/C [38]: 41.8%
- viability, T/C [39]: 37.1%
- viability, T/C [40]: 33.5%
- viability, T/C [41]: 24.5%
- viability, T/C [42]: 6.76%

SMILES: CCN1CCN(Cc2ccc(Nc3ncc(F)c(-c4cc(F)c5nc(C)n(C(C)C)c5c4)n3)nc2)CC1 + CNC(=O)c1ccc(Nc2nc(OC3CCCC3)c3c(-c4ccc5nc(C)oc5c4)c[nH]c3n2)c(OC)c1
- IC50 [1]: > 1000 nM
- IC50 [2]: > 1000 nM
- IC50 [3]: > 1000 nM
- IC50 [4]: < 3.16 nM
- IC50 [5]: < 3.16 nM
- IC50 [6]: < 3.16 nM
- viability, T/C [7]: 81.5%
- viability, T/C [8]: 94.4%
- viability, T/C [9]: 76.3%
- viability, T/C [10]: 67.7%
- viability, T/C [11]: 98.7%
- viability, T/C [12]: 155%
- viability, T/C [13]: 58.5%
- viability, T/C [14]: 64%
- viability, T/C [15]: 56.4%
- viability, T/C [16]: 61.7%
- viability, T/C [17]: 108%
- viability, T/C [18]: 137%
- viability, T/C [19]: 57.6%
- viability, T/C [20]: 55.6%
- viability, T/C [21]: 51.7%
- viability, T/C [22]: 61%
- viability, T/C [23]: 95.3%
- viability, T/C [24]: 135%
- viability, T/C [25]: 45.5%
- viability, T/C [26]: 49.2%
- viability, T/C [27]: 50.7%
- viability, T/C [28]: 63%
- viability, T/C [29]: 92.6%
- viability, T/C [30]: 122%
- viability, T/C [31]: 48.2%
- viability, T/C [32]: 55.7%
- viability, T/C [33]: 57.1%
- viability, T/C [34]: 49.6%
- viability, T/C [35]: 82.9%
- viability, T/C [36]: 97.9%
- viability, T/C [37]: 46.1%
- viability, T/C [38]: 38.8%
- viability, T/C [39]: 46.1%
- viability, T/C [40]: 49.3%
- viability, T/C [41]: 76.4%
- viability, T/C [42]: 99.2%

SMILES: CC(Nc1ccc2c(c1)OCCn1cc(N3C(=O)OCC3C(F)F)nc1-2)C(N)=O (configuration not stated)
- viability, T/C (compound 0.0316 µM): 66.2% and 56.2%
- viability, T/C (compound 0.1 µM): 68.1% and 60.1%
- viability, T/C (compound 0.316 µM): 39.3% and 46.8%
- viability, T/C (compound 1 µM): 40.2% and 37.5%
- viability, T/C (compound 3.16 µM): 32% and 39.5%
- viability, T/C (compound 10 µM): 18.5% and 29.7%
- IC50 (curve of compound): 279 nM and 217 nM

SMILES: COc1c(OCCCN2CCOCC2)ccc2c3n(c(=NC(=O)c4cnc(N)nc4)nc12)CCN3
- viability, T/C (compound 0.00316 µM): 79.2% and 77.8%
- viability, T/C (compound 0.01 µM): 61.3% and 39.7%
- viability, T/C (compound 0.0316 µM): 33.9% and 37.7%
- viability, T/C (compound 0.1 µM): 21.9% and 23.6%
- viability, T/C (compound 0.316 µM): 15.5% and 12.8%
- viability, T/C (compound 1 µM): 4.99% and 10.7%
- IC50 (curve of compound): 16 nM and 9.1 nM

SMILES: CC(C)CC(NC(=O)C(Cc1ccccc1)NC(=O)c1cnccn1)B(O)O (configuration not stated) + CNC(=O)c1ccc(Nc2nc(OC3CCCC3)c3c(-c4ccc5nc(C)oc5c4)c[nH]c3n2)c(OC)c1
- IC50 [1]: 4.63 nM
- IC50 [2]: 2.65 nM
- IC50 [3]: < 0.949 nM
- IC50 [4]: < 0.949 nM
- IC50 [5]: < 0.949 nM
- IC50 [6]: < 0.949 nM
- viability, T/C (second compound 0.0316 µM, first compound 0.000949 µM): 106%
- viability, T/C (second compound 0.0316 µM, first compound 0.003 µM): 73.5%
- viability, T/C (second compound 0.0316 µM, first compound 0.00949 µM): 11.5%
- viability, T/C (second compound 0.0316 µM, first compound 0.03 µM): 2.71%
- viability, T/C (second compound 0.0316 µM, first compound 0.0949 µM): 11.1%
- viability, T/C (second compound 0.0316 µM, first compound 0.3 µM): 7.23%
- viability, T/C (second compound 0.1 µM, first compound 0.000949 µM): 67.5%
- viability, T/C (second compound 0.1 µM, first compound 0.003 µM): 47.9%
- viability, T/C (second compound 0.1 µM, first compound 0.00949 µM): 9.96%
- viability, T/C (second compound 0.1 µM, first compound 0.03 µM): 3.01%
- viability, T/C (second compound 0.1 µM, first compound 0.0949 µM): 8.44%
- viability, T/C (second compound 0.1 µM, first compound 0.3 µM): 6.5%
- viability, T/C (second compound 0.316 µM, first compound 0.000949 µM): 48.9%
- viability, T/C (second compound 0.316 µM, first compound 0.003 µM): 41.4%
- viability, T/C (second compound 0.316 µM, first compound 0.00949 µM): 9.14%
- viability, T/C (second compound 0.316 µM, first compound 0.03 µM): 2.35%
- viability, T/C (second compound 0.316 µM, first compound 0.0949 µM): 4.07%
- viability, T/C (second compound 0.316 µM, first compound 0.3 µM): 3.8%
- viability, T/C (second compound 1 µM, first compound 0.000949 µM): 46.9%
- viability, T/C (second compound 1 µM, first compound 0.003 µM): 29.3%
- viability, T/C (second compound 1 µM, first compound 0.00949 µM): 4.76%
- viability, T/C (second compound 1 µM, first compound 0.03 µM): 10.9%
- viability, T/C (second compound 1 µM, first compound 0.0949 µM): 17.6%
- viability, T/C (second compound 1 µM, first compound 0.3 µM): 13.2%
- viability, T/C (second compound 3.16 µM, first compound 0.000949 µM): 46.5%
- viability, T/C (second compound 3.16 µM, first compound 0.003 µM): 18%
- viability, T/C (second compound 3.16 µM, first compound 0.00949 µM): 11.5%
- viability, T/C (second compound 3.16 µM, first compound 0.03 µM): 21%
- viability, T/C (second compound 3.16 µM, first compound 0.0949 µM): 9.26%
- viability, T/C (second compound 3.16 µM, first compound 0.3 µM): 7.04%
- viability, T/C (second compound 10 µM, first compound 0.000949 µM): 44.6%
- viability, T/C (second compound 10 µM, first compound 0.003 µM): 19.1%
- viability, T/C (second compound 10 µM, first compound 0.00949 µM): 9.08%
- viability, T/C (second compound 10 µM, first compound 0.03 µM): 7.35%
- viability, T/C (second compound 10 µM, first compound 0.0949 µM): 11.3%
- viability, T/C (second compound 10 µM, first compound 0.3 µM): 12.8%

Source: PubChem BioAssay AID2060611 (Molecular Pharmacology Branch, DTP, NCI, 2025)
